Laboratory results taken from patent US20250340548A1, “KRAS G12C INHIBITORS” (Frontier Medicines Corporation, priority 2021, published 2025).

Biological target: T1, KRAS G12C and cRAF (Homo sapiens, UniProt P01116, C118S/C51S/C80L/G12C)
T1 construct: truncated version comprising amino acids 1-169
Assay: AlphaScreen inhibition of KRAS G12C (GMPPNP-loaded) and cRAF RBD binding
Assay type: biochemical
Settings: KRAS G12C preloaded with GMPPNP, 0.5 nM KRAS G12C, 0.75 nM RBD, 19-20 h compound incubation, room temperature
Text: The ability of compounds of Formula (I), Formula (I-1), Formula (I-2), Formula (II), Formula (II-1) and Formula (II-2), and pharmaceutically acceptable salts and/or isotopologues thereof, to inhibit activity of the GTP-bound form of KRAS G12C can be tested using methods such as the in vitro assay described in Examples 308 and 309 below. Example 308 describes determining, for various compounds, the half-maximal inhibition (IC50) of KRAS G12C loaded with GTP analogue GMPPNP from binding to cRaf, as the Ras-binding domain (RBD). […]
The AlphaScreen technology was used to determine IC50S for compound inhibition of KRAS G12C (present as the Cys-light (C51S, C80L and C118S), truncated version comprising amino acids 1-169) and cRAF interaction. […] A mixture of RBD and the AlphaScreen streptavidin donor and glutathione acceptor beads diluted in 25 mM Hepes, pH 7.4, 150 mM NaCl, 5 mM MgCl2, 0.01% TritonX-100 and 2% DMSO was then added at 10 ul/well and incubated for 60-90 minutes before the samples were read for emission at 570 nm after excitation of the donor beads at 680 nm. […] IC50S were determined using nonlinear regression fit of [inhibitor]vs. response (4 parameters).
A counter assay was also set up to rule out inhibitors of the AlphaScreen technology itself. […] Samples were read and analyzed as above.

T1 sequence (P01116 1-169 isoform P01116-2 G12C/C51S/C80L/C118S): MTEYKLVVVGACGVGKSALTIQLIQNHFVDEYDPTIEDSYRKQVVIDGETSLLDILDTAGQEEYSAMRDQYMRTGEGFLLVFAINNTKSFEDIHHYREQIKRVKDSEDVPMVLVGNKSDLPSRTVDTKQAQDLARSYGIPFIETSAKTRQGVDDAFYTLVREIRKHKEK

An IC50 of less than 10 nM was found for `Cc1noc(/C=C/C(=O)N2CC(CN(C)c3nc(OC[C@@]45CCCN4C[C@H](F)C5)nc4c(F)c(-c5cc(O)cc6cccc(Cl)c56)ncc34)C2)n1` [Example 98, (E)-1-(3-(((7-(8-chloro-3-hydroxynaphthalen-1-yl)-8-fluoro-2-(((2R,7aS)-2-fluorotetrahydro-1H-pyrrolizin-7a(5H)-yl)methoxy)pyrido[4,3-d]pyrimidin-4-yl)(methyl)amino)methyl)azetidin-1-yl)-3-(3-methyl-1,2,4-oxadiazol-5-yl)prop-2-en-1-one] in this work.
